Experiments:
[1] = tested on: A549 (human non-small-cell lung cancer); test: MTT cytotoxicity assay, A549; format: cell-based; details: Homo sapiens, A549, 72 h treatment, read-out: Half Maximal Inhibitory Concentration (IC50) A549
In short: (§1)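 Cells seeded at 3 × 10^3/well in DMEM/10% FBS, then treated 72 h with 3.125–50 μM compound in DMSO. MTT (5 mg/mL) added for 4 h, formazan dissolved in DMSO, absorbance read at 490 nm; inhibition relative to untreated control, IC50 as 50% growth inhibition, triplicate runs.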

[2] = tested on: HepG2 (human hepatocellular carcinoma); test: MTT cytotoxicity assay, HepG2; format: cell-based; details: Homo sapiens, HepG2; MTT, 72 h treatment; read-out: Half Maximal Inhibitory Concentration (IC50) HepG2
In short: as §1

[3] = tested on: MDCK (Madin–Darby canine kidney) cells; test: MTT toxicity evaluation, MDCK; format: cell-based; details: Canis lupus familiaris, MDCK, 72 h treatment, non-tumor cells, read-out: Half Maximal Inhibitory Concentration (IC50) MDCK
In short: as §1

[4] = tested on: H9c2 (murine heart myoblast); test: MTT toxicity evaluation, H9c2; format: cell-based; details: H9c2, 72 h treatment, non-tumor cells, read-out: Half Maximal Inhibitory Concentration (IC50) H9c2
In short: as §1

[5] = tested on: A549 cells; test: Annexin V-FITC/PI staining, flow cytometry; format: cell-based, human; details: 72 h
Experimental: To further depict the apoptosis induced by compound 9, apoptotic rates were analyzed by flow cytometry using Annexin V-FITC/PI staining.
According to instructions, A549 cells were stained with an annexin-V FITC apoptosis detection kit (Beijing BioDee Biotech. Co., Ltd., Beijing, China). A549 cells in the logarithmic growth phase were seeded in six-well plates (4.8 × 10^4 cells/well). After incubation for 24 h at 37 °C with 5% CO2, various concentrations (0, 2, 5, or 10 μM) of compound 9 were added to the cultures, and the plate was incubated for a further 72 h. A549 cells were collected, washed twice with cold PBS, and centrifuged at 2400 rpm for 10 min. The resulting pellet was mixed with 200 μL of binding buffer of the Annexin V-FITC kit; then, 5 μL of FITC-labeled annexin V was added and mixed gently. After incubation at 4 °C for 10 min in the dark, 5 μL of PI was added. Then, the cells were immediately analyzed with a flow cytometer at 488 nm.

[6] = tested on: A549 cells; test: Cell-cycle analysis by PI staining, flow cytometry; format: cell-based, human; details: 72 h
Experimental: The remarkable activity of compound 9 against the A549 cell line prompted us to investigate its effect on the cell cycle of A549 by flow cytometry.
According to instructions, A549 cells were stained with the Cell Cycle and Apoptosis Analysis Kit (Beyotime Biotechnology, Shanghai, China). A549 cells in the logarithmic growth phase were seeded in six-well plates (4.8 × 10^4 cells/well). After incubation for 24 h at 37 °C with 5% CO2, various concentrations (0, 2, 5, or 10 μM) of compound 9 were added to the cultures, and the plate was incubated for a further 72 h. A549 cells were collected, washed twice with cold PBS, and centrifuged at 2400 rpm for 10 min. The resulting pellet was mixed with 1 mL of 70% ethanol, and retained for 12 h at 4 °C, before being centrifuged at 2400 rpm for 10 min. The supernatant was discarded, and the resulting pellet was mixed with 1mL of cold PBS and centrifuged at 2400 rpm for 10 min. Then, 0.5 mL of PI staining solution was added and mixed gently. After incubation at 37 °C for 30 min, the cells were immediately analyzed with a flow cytometer at 488 nm.

[7] = tested on: A549 cells; test: DAPI staining, nuclear morphology; format: cell-based, human; details: 6 μM, 72 h
Experimental: As pictured in Figure 6, in the control group, the nucleus was intact and evenly colored. […] When the concentration of the drug increased, nuclear condensation, nuclear fragmentation, and the formation of apoptotic bodies appeared.
A549 cells in the logarithmic growth phase were seeded in 12-well plates (1.2 × 10^4 cells/well). After incubation for 24 h at 37 °C with 5% CO2, various concentrations (0, 2, 4, or 6 μM) of compound 9 were added to the cultures, and the plate was incubated for further 72 h. Then, we discarded the cell culture fluid, washed twice with PBS, and fixed the cells with 4% paraformaldehyde for 10 min. After that, we added the appropriate amount of DAPI (1 mg/mL; Molecular Probes/Invitrogen Life Technologies, Carlsbad, CA, USA) to cover the bottom of the board, after staining for 5 min in the dark.

`Cc1cncc(C(=O)OCCOC(=O)[C@]23CCC(C)(C)CC2C2=CCC4[C@@]5(C)CC[C@H](O)[C@@](C)(CO)C5CC[C@@]4(C)[C@]2(C)CC3)n1` (stereo partly drawn) [Compound 9, 2-(((4aS,6aS,6bR,9R,10S,12aR)-10-Hydroxy-9-(hydroxymethyl)-2,2,6a,6b,9,12a-hexamethyl-1,2,3,4,4a,5,6,6a,6b,7,8,8a,9,10,11,12,12a,12b,13,14b-icosahydropicene-4a-carbonyl)oxy)ethyl-6-methylpyrazine-2-carboxylate] was tested, and the IC50 [1] was 3.45 ± 0.59 µM, the IC50 [2] was 8.71 ± 0.38 µM and the IC50 [3] was 14.11 ± 0.04 µM. For the same compound, the IC50 [4] was 16.69 ± 0.12 µM, the “percentage of apoptotic cells (early and late apoptosis)” value (“percentage of apoptotic cells” below) ([5]; 2 μM) was 17.4% and the “percentage of apoptotic cells” value ([5]; 5 μM) was 72.0%. For the same compound, the “percentage of apoptotic cells” value ([5]; 10 μM) was 91.5%, the “cells in G1 phase” value ([6]; 2 μM) was 57.46% and the “cells in G2 phase” value ([6]; 2 μM) was 8.37%. The “cells in S phase” value ([6]; 2 μM) was 34.17%, the “cells in G1 phase” value ([6]; 5 μM) was 53.44% and the “cells in G2 phase” value ([6]; 5 μM) was 0.00%. For the same compound, the “cells in S phase” value ([6]; 5 μM) was 46.56%, the “cells in G1 phase” value ([6]; 10 μM) was 39.54% and the “cells in G2 phase” value ([6]; 10 μM) was 0.00%. The “cells in S phase” value ([6]; 10 μM) was 60.46% and the “nuclear morphology, DAPI staining” value [7] was “the number of cells decreased drastically, the shape of the cells became irregular, and nuclear fragmentation occurred”.
